From PMC12775124, “CUL4A-DDB1-DCAF10 is an N-recognin for N-terminally acetylated Src kinases” (Nature Communications, 2026)

Tested on: DLD-1 Flp-In T-REx and Lyn KO cells
Assay: Level of Lyn / Lyn-GFP variants after NMT1/2 and DCAF10 siRNA, Western blot
Format: cell-based, human
Excerpt: To further investigate the role of the Nt-amino acid and its modification in DCAF10 recognition and DCAF10-dependent ubiquitination, we used the CRISPR/Cas9 technique to knock out Lyn in DLD-1 cell lines with T-REx Flp-In background (DLD-1 Lyn KO Flp-In T-REx) (Supplementary Fig. 7a–c). We then integrated Lyn^WT-GFP and two Nt-mutants (Lyn^G2A-GFP and Lyn^G2P-GFP) under a doxycycline-inducible promoter into the Flp-In cassette. Alanine (G2A) is expected to be efficiently acetylated by NatA, generating an Nt-acetylated Lyn mutant. Conversely, the proline (G2P) mutant, is expected not to be acetylated and may retain a free N-terminus[3],[36],[37]. Doxycycline-induced expression of Lyn^WT-GFP, Lyn^G2A-GFP, and Lyn^G2P-GFP was confirmed by Western blot, MS, and fluorescence microscopy (Supplementary Figs. 7d, e; 8a and Supplementary Data 6). While all constructs were ~2–5-fold higher expressed than endogenous Lyn, G2A and G2P were further elevated relative to WT, which may reflect increased stability when Nt-Gly/acetylation is altered (Supplementary Fig. 7e). […] Lyn^WT-GFP mirrored the behavior of endogenous Lyn under NMT1/2 siRNA treatment. Lyn levels decreased with NMT1/2 KD, but were rescued when siRNAs targeting both NMT1/2 and DCAF10 were applied (Fig. 6a, b). […] The weaker reduction of Lyn^WT-GFP may result from Lyn overexpression and the limiting availability of DCAF10.
Fig. 6 N-terminal glycine mutation abolishes DCAF10-dependent stability and ubiquitination. a DLD-1 Flp-In T-REx cells and Lyn KO cells expressing Lyn^WT-GFP, Lyn^G2A-GFP, or Lyn^G2P-GFP were induced for 24 h with 100 ng/mL doxycycline. Cells were treated with NMT1/2 siRNA, DCAF10 siRNA, or both (or left untreated) for 72 h. Representative WBs are shown. Filled circles represent siRNA treatment, empty circles untreated. b WB quantifications of Lyn levels normalized to vinculin. Purple: untreated with NMT1/2 siRNA; blue: treated with NMT1/2 siRNA. Mean ± s.d. with individual data points are shown (n = 3 independent biological replicates). c Schematic of ubiquitination experiments. Created in BioRender. […] Lysates have been treated with NMT1/2 RNAi for 72 h. i Quantification of in vitro ubiquitination assays. Mean ± s.d. with individual data points are shown (n = 3 independent ubiquitination assays). Volcano plots of Lyn-GFP^WT binding partners: j NMT1/2 siRNA ± doxycycline (Dox); k Control ± doxycycline; l NMT1/2 siRNA vs. control both with doxycycline. The −log10 adjusted p-value (two-sided Student’s t test with permutation-based multiple-testing correction; y-axis) is plotted against the log2 fold change (x-axis). Threshold for significance: −log10 p-value ≥ 1.3 (p ≤ 0.05), log2 fold change ≤ −1 or ≥ 1. DCAF10 and Lyn-GFP are marked in green, significant binding partners in purple and in blue, respectively. Source data are provided as a Source data file.
DLD-1 Lyn knockout (KO) Flp-In T-REx cells were generated by CRISPR/Cas9 electroporation using two guide RNAs targeting the LYN locus. Editing and clone validation were confirmed by genomic sequencing, Western blotting, and MS[51]. Stable cell lines expressing doxycycline-inducible Lyn-GFP (WT, G2A, or G2P) were established by FRT/Flp-mediated recombination and validated by antibiotic selection, Western blotting, and fluorescence microscopy. Detailed protocols are provided in the Supplementary Methods and Tables.
461 electroporated using the CM137 program. Following electroporation, the cells were kept […]

Lyn^WT-GFP: doxycycline-inducible C-terminally GFP-fused Lyn in DLD-1 Lyn KO cells
Level decrease following NMT1/2 KD (DLD-1, 72 h NMT1/2 siRNA, 24 h doxycycline 100 ng/mL, WB/vinculin, average, n = 3): 21%
Dependency on NMT1/2 and DCAF10 (in words) (DLD-1, 72 h siRNA): remained dependent on NMT1/2 and DCAF10
Level increase upon combined NMT1/2 and DCAF10 KD (DLD-1, 72 h siRNA, WB/vinculin, n = 3): 41.7%
